Measurements reported in patent publication US11590110B2, “Compositions and methods for reactivating latent immunodeficiency virus using a GSK-3 inhibitor” (priority 2017, dated 2023).
“Also recorded” adds a separate entry of the source. Read-outs that look alike come from different tables or passages of the source.

How the values were obtained:
CD4+ T cells [1] = experiment: Example 5: surface expression of activation markers CD69 and CD25, flow cytometry; type: cell-based, human; settings: 48 hours
Procedure: (§1) Freshly isolated PBMCs or CD4^+ T cells were stained for viability, using the fixable viability dye Zombie violet (1:50, Biolegend) according to the manufacturer's recommendation. Surface staining was performed with the following antibodies at 1:100 dilutions: CD3-PE-Cy7, CD4-APC-Cy7, CD69-FITC, CD25-PE (all 1:100, Biolegend), and Glut-1-Ax647 (BD Bioscience, 566580) in staining buffer for 20 min on ice and cells were fixed in 1% PFA-containing PBS. All flow analysis was performed on the LSRII (BD Biosciences) using FlowJo software (v.10.4.2). Color compensations were performed using single-stained samples for each of the fluorochromes used. Data were analyzed using FlowJo software (TreeStar, San Carlos, Calif.).

CD4+ T cells [2] = experiment: Example 5: cytokines release assay (V-PLEX pro-inflammatory panel); type: cell-based, human; settings: 48 hours; culture supernatant of CD4+ T cells
Procedure: Supernatant was collected from the treated cell cultures described above and stored at −80° C. for later analysis. Supernatant cytokine levels were determined using a V-PLEX Proinflammatory Panel 1 (human) Kit (#K15049D-1) and a V-PLEX IL-17A Gen. B (human) (#K151WMD) from Meso Scale Discovery, following the manufacturer's protocol. The assay was done on undiluted supernatant samples in order to increase the sensitivity of the assay.

CD4+ T cells [3] = experiment: Example 5: CD4+ T cell viability, Cell Titer Blue assay; type: cell-based, human; settings: 48 hours; for CD4+ T-cell viability: SB-216763 and tideglusib 10/100/1000 nM, bryostatin-1 10 nM
Procedure: 25 μl from each well/treatment were incubated with Cell Titer Blue reagent (Promega) for 3 to 4 hours at 37° C. The assay is based on the ability of living cells to convert a redox dye (resazurin) into a fluorescent end product (resorufin). Colorimetric analysis of treated cells was done with a Perkin Elmer EnSpire 2300 Multimode plate reader set to detect fluorescence (Ex:579 nm/Em:584 nm).

CD4+ T cells [4] = experiment: Example 5: lactate production analysis; type: cell-based, human
Procedure: Subsequently, media of the treated samples were tested for production of L-lactated using a Glycolysis Cell-Based Assay Kit (Cayman Chemical). This test measures the quantity of formazan, an artificial chromogenic dye that results from the reduction of tetrazolium salts in the presence of NADH in the culture media. Colored formazan absorbs between 490 and 520 nm and can be detected by a plate reader. Since lactate dehydrogenase catalyzes the reaction between NAD+ and lactate, yielding pyruvate and NADH, which directly reduces the tetrazolium salt, the quantity of formazan produced is proportional to the quantity of L-lactate in the culture medium, and is thus an indirect measurement of glycolysis. In order to determine specific L-Lactate concentration, a standard curve was obtained analyzing absorbance of known concentration of L-lactate as indicated in the manufacturer's protocol.

patient CD4+ T cells = settings: human, 48 h
GSK-3 = settings: cited from earlier work
[5] = system: latent HIV-1 in blood CD4+ T cells from infected individuals on suppressive ART; type: cell-based
[6] = system: latent HIV in CD4+ T cells of HIV-infected patients on suppressive anti-retroviral therapy; experiment: Example 7: reversal of HIV latency in patient CD4+ T cells, extracellular viral RNA by digital droplet PCR
[7] = system: latent HIV-GFP reporter virus in resting CD4+ T cells from human tonsil; experiment: Example 6: lymphoid tissue model of HIV latency, HIV-GFP reporter, flow cytometry; type: cell-based; settings: 48 hours; for latency reversal by first-generation LRAs: bryostatin-1 10 nM, JQ1 100 nM, panobinostat 50 nM
[8] = system: patient-derived CD4+ T cells; settings: as shown in PCT/US2016/64614; cited from earlier work
NF-κB (p65) = experiment: Example 5: NF-κB p65 nuclear translocation, western blot of nuclear extracts; type: cell-based, human; settings: 250 nM inhibitor with 1 μM tideglusib
CD4+ T cells [9] = experiment: Example 5: GLUT1 surface expression, flow cytometry; type: cell-based, human; settings: 2 or 24 hours; 1 μM tideglusib; CD4+ T cells of three HIV-negative donors
Procedure: as §1
Changes to the metabolism of resting CD4^+ T-cells by tideglusib were studied. […] […].

tonsil CD4+ T cells = experiment: Example 6: cell viability in tonsil CD4+ T cell cultures, Cell-Titer Blue; settings: SB216763 10-1,000 nM, PMA 200 nM, panobinostat 50 nM; 48 hours
[10] = system: patient-derived CD4+ T cells; settings: as shown in PCT/US2016/64614; cited from earlier work; remark: listed apart in the source
CD8+ T cells = experiment: Example 5: CD8 T-cell viability and cytotoxic effector functions; type: cell-based, human; settings: 48 hours; 50 nM
Procedure: After drug treatment, human PBMCs were cultured in complete RPMI in the presence of CD107a-BV650 (1:50, 328637, BioLegend) or CD107a-FITC antibodies (1:50, 555800, BD Bioscience) and PMA/ionomycin (50 ng/ml and 1 uM) dor 3.5 hours, adding Brefeldin A and Monensin (eBioscience) for the last hour. Cells were subsequently stained for viability using the viability dyes eFluor 506, (eBioscience) according to the provided protocol. After surface marker staining with the following antibodies (all at 1:100 dilution): CD3-APC-H7 (560176; BD Biosciences), CD8-V450 (560347; BD Biosciences), CD45RA-APC (17-0458; eBioscience), and CCR7-PE-Cy7 (557648; BD Biosciences), cells were permeabilized and fixed using the Foxp3/Transcription Factor Fixation/Permeabilization Concentrate and Diluent kit (eBioscience). Intracellular staining was performed with IFN-γ-PerCP-Cy5.5 antibody (1:100, 560704, BD Bioscience) in FOXP3 perm/wash buffer for 1 h at 4° C. After washing and fixation of the cells in 1% paraformaldehyde/PBS, cells were analyzed by flow cytometry. Final data stems from having gated on CD8hi- and CD8lo-expressing T cells.

NK cells = experiment: Example 5: NK cell viability and cytotoxic effector functions; type: cell-based, human; settings: 48 hours; 50 nM
Procedure: Density centrifugation using a Ficoll-Hypaqua gradient was performed to purify PBMCs from continuous-flow centrifugation leukapheresis product. Subsequently, cells were plated in 96-well U-bottom plated in complete RPMI, which was supplemented with 10 ng/ml recombinant IL-15 (R&D systems), treated with LRAs or vehicle controls (DMSO) and incubated at 37° C., 5% CO2 for 48 h. To assay NK cell functionality, cells were analyzed by flow cytometry. Briefly, 1×10^6 cells/200 ul were stained with FITC anti-CD107 antibodies (1:50, BD Biosciences), mixed with 1×10^5 K562 cells and incubated at 37° C., 5% CO2 for 1 h. Then, in order to enhance intracellular cytokine staining, protein transport was blocked with Brefeldin A (Sigma-Aldrich) and golgi stop (BD Biosciences) according to the manufacturer instructions and the cells were incubated at 37° C., 5% CO2 for another 5 h. Afterwards, cells were spun down (5 min, 330×g, RT), the supernatant was removed and the cells were stained using Zombie violet (1:50, Biolegend) according to the manufacturer protocol. Subsequently, cells were stained for surface proteins staining with the following antibodies: APC/Cy7 anti CD3 (1:100, Biolegend), APC anti CD14 (1:100, Biolegend), APC anti CD19 (1:100, Biolegend), PE/Cy7 anti CD56 (1:100, BD Biosciences), Alexa Fluor 700 anti CD16 (1:100, Biolegend), PE anti CD7 (1:50, Thermo Fisher Scientific) for 15 min at room temperature. Next, cells were permeabilized and fixed using the Foxp3/Transcription Factor Fixation/Permeabilization Concentrate and Diluent kit (eBioscience) and stained intracellularly with PerCP/Cy5 anti IFN-γ (1:50, BD Bioscience) in FOXP3 perm/wash buffer for 1 h at 4° C. Finally, cells were washed and fixed in 1% paraformaldehyde/PBS, and subjected to flow cytometry analysis on a LSRII (BD Biosciences). Data were obtained using FlowJo software (Treestar). Samples were gated for singlets, live, CD3 negative, CD14/CD19 negative and CD7 positive cells as previously described (York, Milush). CD16high/CD56dim, CD16dim/CD56high cells were considered for analysis of IFN-γ and CD107a positivity. All gates were defined, based on fluorescence minus one (FMO) samples.

[11] = 10 nM, 48 hours, relative to untreated control

With `Cn1cc(C2=C(c3ccc(Cl)cc3Cl)C(=O)NC2=O)c2ccccc21` [SB-216763, 3-(2,4-Dichlorophenyl)-4-(1-methyl-1H-indol-3-yl)-1H-pyrrole-2,5-dione] the “surface expression of the activation markers CD69 or CD25” value (CD4+ T cells [1]) was “no increase”, the “production and release of pro-inflammatory cytokines” value (CD4+ T cells [2]) was “does not induce T cell activation or cytokine production” and the “CD4+ T-cell viability” value (CD4+ T cells [3]) was “does not reduce viability”. The “L-lactate in the culture media” value (CD4+ T cells [4]; 24 hours of treatment) was “did not result in an increase of L-lactate”, the “toxicity based on cell-titer blue testing” value (patient CD4+ T cells) was “Neither tideglusib nor SB216763 induced toxicity” and the IC50 (GSK-3) was […]. For the same molecule, the “virus-associated HIV-1 mRNA, mean fold-change” value [5] was […], the “latency reversing activity, in words” value ([6]; at equivalent doses) was “comparable activity” and the “subjects that did not respond” value ([6]; highest dose) was 3 of 14. The “induction of the GFP reporter over unstimulated” value ([7]; doses between 100-1000 nM) was 90 fold.
For `O=CC[C@@H](O)[C@H](O)[C@H](O)CO` [2-DG, 2-deoxy-D-glucose], the “L-lactate production in treated and untreated samples” value (CD4+ T cells [4]; 50 mM, 24 hours) was “dramatically reduced L-lactate production”.
In the case of `CCC/C=C/C=C/C(=O)O[C@H]1/C(=C/C(=O)OC)C[C@H]2C[C@H]([C@@H](C)O)OC(=O)C[C@H](O)C[C@@H]3C[C@H](OC(C)=O)C(C)(C)[C@](O)(C[C@@H]4C/C(=C/C(=O)OC)C[C@H](/C=C/C(C)(C)[C@]1(O)O2)O4)O3` [bryostatin-1], the CD69 surface expression (CD4+ T cells [1]; 10 nM) is listed as “markedly increased”, the “production and release of pro-inflammatory cytokines” value (CD4+ T cells [2]) is listed as “release of IFN-γ, IL-6, IL-13” and the “activation marker expression with known latency-reversing agent” value [8] is listed as “increase in activation marker expression”. The “CD4+ T-cell viability” value (CD4+ T cells [3]) was “minimal decrease”, the “virus-associated HIV-1 mRNA, mean fold-change” value [5, 11] was 574.4 fold and the “virus-associated HIV-1 mRNA, median value” [5, 11] was 5.086 fold. The “latency reversal by first-generation LRAs” value [7] was “only minimal latency reversal”.
With `Cc1sc2c(c1C)C(c1ccc(Cl)cc1)=N[C@@H](CC(=O)OC(C)(C)C)c1nnc(C)n1-2` [JQ-1] the “latency reversal by first-generation LRAs” value [7] was “only minimal latency reversal”.
For `CC(C)n1nc(-c2cc3cc(O)ccc3[nH]2)c2c(N)ncnc21` [PP242], the “effect of co-treatment on tideglusib-mediated p65 nuclear translocation” value (NF-κB (p65)) was “less reduction in nuclear translocation” and the “GLUT1 surface expression over the untreated control” value (CD4+ T cells [9]) was “did not significantly alter expression of GLUT1”.
In the case of `CCCCCCCCCCCCCC(=O)O[C@@H]1[C@@H](C)[C@@]2(O)[C@@H](C=C(CO)C[C@]3(O)C(=O)C(C)=C[C@@H]23)[C@@H]2C(C)(C)[C@]12OC(C)=O` [PMA, phorbol 12-myristic13-acetate], the “cell viability relative to untreated cells” value (tonsil CD4+ T cells) is reported as “clear toxicity; also recorded: toxicity was observed”.
In the case of `Cc1[nH]c2ccccc2c1CCNCc1ccc(/C=C/C(=O)NO)cc1` [panobinostat], the “toxicity of known latency-reversing agent” value [10] is given as “highly toxic”, the “cell death of CD4+ T cells” value (CD4+ T cells [3]; 50 nM) is given as ~50% and the “reduction of total CD8+ T cells” value (CD8+ T cells) is given as “approximately 40%”. The “reduction of total NK cells” value (NK cells) was “approximately 60%”.
With `CCOC(=O)C1=C(N)Oc2ccc(Cl)cc2C1C(C#N)C(=O)OCC` (stereo not drawn) [SC79, 2-amino-6-chloro-α-cyano-3-(ethoxycarbonyl)-4H-1-benzopyran-4-acetic acid ethyl ester] the “release of virions in the culture supernatant” value ([5]; 48 hours, CD4+ T cells from five HIV-positive participants, SC79 10/100/1000 nM) was “increased release of virions”.
